# From ChEMBL document CHEMBL1201862, “PubChem BioAssay data set” (2004)
# Calls of active or inactive are those of the source.
# What was measured:
# [1] = target: T1, Alkaline phosphatase, tissue-nonspecific isozyme (Homo sapiens, UniProt P05186); test: TNAP enzyme inhibition by screening hits, dose response, selectivity assay for mouse IAP inhibitor project, biochemical, human TNAP, uHTS hits (AID 488906); format: functional
# T1 sequence (P05186 whole entry): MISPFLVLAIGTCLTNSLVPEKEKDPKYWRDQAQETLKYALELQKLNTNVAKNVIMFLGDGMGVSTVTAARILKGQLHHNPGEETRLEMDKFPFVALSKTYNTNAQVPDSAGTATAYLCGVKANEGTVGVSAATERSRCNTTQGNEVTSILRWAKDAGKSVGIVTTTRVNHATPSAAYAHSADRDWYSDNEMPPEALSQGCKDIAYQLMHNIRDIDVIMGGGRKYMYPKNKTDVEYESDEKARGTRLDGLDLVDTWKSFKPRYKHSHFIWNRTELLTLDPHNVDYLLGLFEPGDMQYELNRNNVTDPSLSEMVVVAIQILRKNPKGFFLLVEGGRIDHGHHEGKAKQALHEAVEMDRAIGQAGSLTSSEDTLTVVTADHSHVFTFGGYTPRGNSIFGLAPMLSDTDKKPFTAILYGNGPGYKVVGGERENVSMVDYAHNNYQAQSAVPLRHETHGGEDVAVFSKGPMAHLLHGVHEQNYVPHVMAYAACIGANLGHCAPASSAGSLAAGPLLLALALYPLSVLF
# [2] = target: Intestinal-type alkaline phosphatase (Homo sapiens, UniProt P09923); test: inhibition of human intestinal alkaline phosphatase – biochemical, dose response (AID 488876); format: functional
# [3] = target: Intestinal-type alkaline phosphatase (Mus musculus, UniProt P24822); test: PubChem AID 488785; format: functional
# [4] = target: T2, Dual specificity protein phosphatase 3 (Homo sapiens, UniProt P51452); test: VHR1 phosphatase inhibitors, primary screen, biochemical, absorbance, uHTS (AID 1654)
# [5] = target: Dual specificity protein phosphatase 6 (Rattus norvegicus, UniProt Q64346); test: inhibition of rat DUSP6 enzyme activity – biochemical, in vitro, primary screen (AID 425)
# [6] = target: T2, Dual specificity protein phosphatase 3; test: VHR1 phosphatase inhibitors, biochemical (AID 1878)
# [7] = target: T3, Kappa-type opioid receptor (Homo sapiens, UniProt P41145); test: kappa opioid receptor activation by imaging – image-based, set 3, SAR follow-up (AID 488833); format: functional
# [8] = target: Delta-type opioid receptor (Homo sapiens, UniProt P41143); test: SAR Analysis of Agonists of the DOR Receptor using an Image-Based Assay - Set 3. [Related pubchem assays (depositor defined):AID1777, AID1786]; format: functional
# [9] = target: T3, Kappa-type opioid receptor; test: SAR analysis of small molecule agonists of the kappa opioid receptor via a luminescent beta-arrestin assay - Set 3. [Related pubchem assays (depositor defined):AID1777, AID1785, AID1786, AID1966, AID2133, AID2136, AID2284, AID2500]; format: functional
# Mu-type opioid receptor = Mu-type opioid receptor (Homo sapiens, UniProt P35372); test: SAR Analysis of Agonists of the MOR Receptor using an Image-Based Assay - Set 3. [Related pubchem assays (depositor defined):AID1777, AID1785, AID1786, AID1966, AID2133, AID2136, AID2284, AID2285, AID2352]; format: functional
# [10] = target: T4, Voltage-gated N-type calcium channel alpha-1B subunit/Amyloid beta A4 precursor protein-binding family A member 1 (Homo sapiens, UniProt Q00975+Q02410); format: protein assay
# Vero [11] = test: cells; format: functional; details: Chlorocebus sabaeus
# Exodeoxyribonuclease V = Exodeoxyribonuclease V (Escherichia coli (strain K12), UniProt P04993+P07648+P08394); test: RecBCD inhibition via phage-restricted bacterial growth – absorbance, V66 E. coli, mutant T4 phage, counter-screen for AddAB inhibitor project, dose response (AID 492957); format: functional, cell-based, Escherichia coli str. K-12 substr. MG1655
# [12] = NIH3T3 cell viability loss – ATP luminescence, mouse fibroblasts, counter-screen, dose response (AID 2010); format: functional, cell-based;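 further: cells exposed to compound for about 90 hours before reading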
# [13] = target: T4, Voltage-gated N-type calcium channel alpha-1B subunit/Amyloid beta A4 precursor protein-binding family A member 1; format: protein assay; remark: listed apart in the source
# [14] = Counterscreen for AddAB inhibitors: absorbance-based bacterial cell-based high throughput dose response assay for inhibitors of bacterial viability. [Related pubchem assays (depositor defined):AID435030, AID449728, AID449731, AID488942, AID488955, AID488956]; format: functional
# [15] = Trypanosoma cruzi growth suppression in host cells – NIH3T3 host cells, beta-gal luminescence, confirmation (AID 2044); format: functional, cell-based;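 further: intracellular parasites grown in NIH/3T3 mouse fibroblasts as host cells; luminescent beta-galactosidase reporter signal from transgenic T. cruzi replicating inside host cells; inhibitors lower the luminescence signal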
# Vero [16] = test: mammalian cell viability reduction – secondary assay, cytotoxicity control for West Nile virus antiviral project, dose response (AID 1650); format: functional; details: Chlorocebus sabaeus
# [17] = Luminescence Cell-Based Dose Response HTS to Identify Inhibitors of 5'UTR Stem-Loop Driven Prion Protein mRNA Translation in H4 Neuroglioblastoma Cells. [Related pubchem assays: 1827 (Project Summary), 1813 (Primary HTS)]; format: functional
# DLD-1 [18] = test: KLF5 protein lowering by immunoblot – western blot, chemiluminescence, DLD-1 cells, titration, orthogonal assay for KLF5 inhibitor project, late-stage follow-up (AID 485336); format: functional, cell-based; details: Homo sapiens
# Vero [19] = test: cells; format: functional, cell-based; details: Chlorocebus sabaeus
# [20] = Luminescence-based counterscreen assay for KLF5 inhibitors: dose response cell-based high throughput screening assay to identify cytotoxic compounds using the IEC-6 intestinal epithelial cell line. [Related pubchem assays: 1700 (Primary screen.), 1834 (Confirmation screen.), 1858 (Summary AID.), 1905 (Counterscreen.)]; format: functional
# [21] = alpha-synuclein stem-loop luciferase translation blockers – H4 neuroglioma cells, luminescence, confirmation (AID 1988); format: functional, cell-based
# [22] = luciferase reporter signal suppression in cells – H4 neuroglioma cells, luminescence, dose response (AID 1990); format: functional, cell-based
# DLD-1 [23] = test: DLD-1 cell viability reduction – luminescence, round 1, cytotoxicity control for KLF5 inhibitor project, late-stage follow-up (AID 485338); format: functional, cell-based; details: Homo sapiens
# T4 sequence (Q00975 whole entry): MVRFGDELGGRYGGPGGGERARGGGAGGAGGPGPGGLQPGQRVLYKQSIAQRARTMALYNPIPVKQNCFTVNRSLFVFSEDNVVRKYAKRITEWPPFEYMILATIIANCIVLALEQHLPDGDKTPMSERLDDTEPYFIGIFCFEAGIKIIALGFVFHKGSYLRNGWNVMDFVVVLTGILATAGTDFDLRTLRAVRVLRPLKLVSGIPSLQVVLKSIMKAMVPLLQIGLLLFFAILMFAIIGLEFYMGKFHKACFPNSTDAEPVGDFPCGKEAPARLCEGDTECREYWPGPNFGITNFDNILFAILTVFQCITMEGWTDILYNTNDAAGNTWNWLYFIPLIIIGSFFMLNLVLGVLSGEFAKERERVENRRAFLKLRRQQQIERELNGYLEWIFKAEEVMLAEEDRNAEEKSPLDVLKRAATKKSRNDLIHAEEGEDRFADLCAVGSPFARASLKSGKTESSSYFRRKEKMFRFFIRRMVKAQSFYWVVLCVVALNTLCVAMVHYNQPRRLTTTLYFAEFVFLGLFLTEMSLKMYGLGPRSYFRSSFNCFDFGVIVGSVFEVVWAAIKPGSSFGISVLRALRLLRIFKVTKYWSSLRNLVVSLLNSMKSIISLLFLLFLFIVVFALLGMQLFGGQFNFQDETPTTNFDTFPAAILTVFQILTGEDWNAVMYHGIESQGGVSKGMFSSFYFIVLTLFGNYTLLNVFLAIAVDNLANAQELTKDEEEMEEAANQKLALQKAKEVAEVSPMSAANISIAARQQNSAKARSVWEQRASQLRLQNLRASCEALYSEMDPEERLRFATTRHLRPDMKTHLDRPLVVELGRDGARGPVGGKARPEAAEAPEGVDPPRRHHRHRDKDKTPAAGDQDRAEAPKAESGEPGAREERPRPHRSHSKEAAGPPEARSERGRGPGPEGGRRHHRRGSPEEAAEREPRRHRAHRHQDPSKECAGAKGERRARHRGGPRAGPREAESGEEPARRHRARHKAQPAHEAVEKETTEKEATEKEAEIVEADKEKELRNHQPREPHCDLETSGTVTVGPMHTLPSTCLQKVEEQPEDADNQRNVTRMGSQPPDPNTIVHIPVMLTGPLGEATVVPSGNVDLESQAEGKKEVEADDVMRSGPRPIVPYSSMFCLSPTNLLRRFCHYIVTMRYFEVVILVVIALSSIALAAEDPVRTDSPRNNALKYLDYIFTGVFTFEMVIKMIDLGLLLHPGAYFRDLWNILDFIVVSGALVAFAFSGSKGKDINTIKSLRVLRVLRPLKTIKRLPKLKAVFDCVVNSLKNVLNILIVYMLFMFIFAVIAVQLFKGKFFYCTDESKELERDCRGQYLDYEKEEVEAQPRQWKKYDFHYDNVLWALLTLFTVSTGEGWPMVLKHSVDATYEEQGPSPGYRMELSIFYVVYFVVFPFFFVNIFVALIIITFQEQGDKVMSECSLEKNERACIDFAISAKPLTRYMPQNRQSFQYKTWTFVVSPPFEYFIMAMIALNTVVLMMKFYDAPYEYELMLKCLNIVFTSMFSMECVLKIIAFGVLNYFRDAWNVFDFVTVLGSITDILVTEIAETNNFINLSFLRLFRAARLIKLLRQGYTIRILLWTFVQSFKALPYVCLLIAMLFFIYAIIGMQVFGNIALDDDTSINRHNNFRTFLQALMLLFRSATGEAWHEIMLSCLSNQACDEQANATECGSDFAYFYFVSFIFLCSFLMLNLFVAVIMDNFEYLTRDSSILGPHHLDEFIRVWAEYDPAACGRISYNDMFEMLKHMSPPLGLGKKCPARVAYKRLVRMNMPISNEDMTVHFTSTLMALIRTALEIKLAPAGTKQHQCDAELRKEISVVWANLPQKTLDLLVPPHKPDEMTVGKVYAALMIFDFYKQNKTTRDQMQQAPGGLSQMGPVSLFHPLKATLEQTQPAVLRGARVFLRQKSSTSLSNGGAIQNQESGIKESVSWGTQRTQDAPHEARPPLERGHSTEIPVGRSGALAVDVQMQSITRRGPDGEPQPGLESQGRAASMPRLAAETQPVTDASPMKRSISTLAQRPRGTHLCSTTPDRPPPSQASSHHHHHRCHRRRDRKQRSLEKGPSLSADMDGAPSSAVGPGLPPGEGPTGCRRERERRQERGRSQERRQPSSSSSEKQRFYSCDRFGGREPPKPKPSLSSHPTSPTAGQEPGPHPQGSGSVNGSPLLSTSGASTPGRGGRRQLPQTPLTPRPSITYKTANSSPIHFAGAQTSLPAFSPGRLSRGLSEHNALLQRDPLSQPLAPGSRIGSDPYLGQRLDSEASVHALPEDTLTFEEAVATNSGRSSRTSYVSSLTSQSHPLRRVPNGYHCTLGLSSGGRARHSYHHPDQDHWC
# T4 sequence (Q02410 whole entry): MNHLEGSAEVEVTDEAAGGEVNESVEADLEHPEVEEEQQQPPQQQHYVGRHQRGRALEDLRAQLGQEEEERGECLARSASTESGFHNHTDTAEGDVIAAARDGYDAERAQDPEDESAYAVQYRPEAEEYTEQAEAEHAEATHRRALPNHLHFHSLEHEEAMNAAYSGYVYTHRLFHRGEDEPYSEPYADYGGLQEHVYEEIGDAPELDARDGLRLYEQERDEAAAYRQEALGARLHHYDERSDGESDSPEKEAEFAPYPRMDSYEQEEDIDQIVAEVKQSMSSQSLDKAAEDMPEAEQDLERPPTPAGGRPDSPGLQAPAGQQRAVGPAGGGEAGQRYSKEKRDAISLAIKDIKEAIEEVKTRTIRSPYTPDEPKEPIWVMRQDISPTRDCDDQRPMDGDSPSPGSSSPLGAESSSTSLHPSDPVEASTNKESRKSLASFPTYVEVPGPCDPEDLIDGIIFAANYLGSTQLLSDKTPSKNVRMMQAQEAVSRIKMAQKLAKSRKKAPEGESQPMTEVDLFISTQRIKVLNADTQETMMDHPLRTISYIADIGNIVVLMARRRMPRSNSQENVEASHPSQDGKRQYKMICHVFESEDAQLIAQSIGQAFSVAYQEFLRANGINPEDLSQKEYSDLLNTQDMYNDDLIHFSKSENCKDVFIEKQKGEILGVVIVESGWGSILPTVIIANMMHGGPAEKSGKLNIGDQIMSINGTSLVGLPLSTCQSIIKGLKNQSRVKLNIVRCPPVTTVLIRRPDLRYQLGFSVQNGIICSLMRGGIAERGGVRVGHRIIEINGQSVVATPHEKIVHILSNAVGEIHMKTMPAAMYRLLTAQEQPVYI
# T3 sequence (P41145 whole entry): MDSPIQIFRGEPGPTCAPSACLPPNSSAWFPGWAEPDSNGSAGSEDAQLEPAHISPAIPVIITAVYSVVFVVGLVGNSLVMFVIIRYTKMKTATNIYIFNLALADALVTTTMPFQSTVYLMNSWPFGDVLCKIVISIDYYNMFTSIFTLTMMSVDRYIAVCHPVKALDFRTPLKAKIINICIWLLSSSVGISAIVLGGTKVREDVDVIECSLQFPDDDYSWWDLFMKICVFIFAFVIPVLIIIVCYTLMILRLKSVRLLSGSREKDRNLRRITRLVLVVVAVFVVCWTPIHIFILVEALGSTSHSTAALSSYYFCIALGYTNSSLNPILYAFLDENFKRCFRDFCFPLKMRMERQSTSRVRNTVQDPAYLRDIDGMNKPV
# T2 sequence (P51452 whole entry): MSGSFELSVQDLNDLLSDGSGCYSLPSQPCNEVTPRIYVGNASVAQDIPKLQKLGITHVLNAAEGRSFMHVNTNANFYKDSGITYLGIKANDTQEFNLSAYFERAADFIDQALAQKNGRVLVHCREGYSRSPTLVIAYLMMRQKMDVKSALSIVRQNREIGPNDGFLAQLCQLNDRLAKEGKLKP
# Sequence of Intestinal-type alkaline phosphatase (Mus musculus, UniProt P24822) (P24822 whole entry): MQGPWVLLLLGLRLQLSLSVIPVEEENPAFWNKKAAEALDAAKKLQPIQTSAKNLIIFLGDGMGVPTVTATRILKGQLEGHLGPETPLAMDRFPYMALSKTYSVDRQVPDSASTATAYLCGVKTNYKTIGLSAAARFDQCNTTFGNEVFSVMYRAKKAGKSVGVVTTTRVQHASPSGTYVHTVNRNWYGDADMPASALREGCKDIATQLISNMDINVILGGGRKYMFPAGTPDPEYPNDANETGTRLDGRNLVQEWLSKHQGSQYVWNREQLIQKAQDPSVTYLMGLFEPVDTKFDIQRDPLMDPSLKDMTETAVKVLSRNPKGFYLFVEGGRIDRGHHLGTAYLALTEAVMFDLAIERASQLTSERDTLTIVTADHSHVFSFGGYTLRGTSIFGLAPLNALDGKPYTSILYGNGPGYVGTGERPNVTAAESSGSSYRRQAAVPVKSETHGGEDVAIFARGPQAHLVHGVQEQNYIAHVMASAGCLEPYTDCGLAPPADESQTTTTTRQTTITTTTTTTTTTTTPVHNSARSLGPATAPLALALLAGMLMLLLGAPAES
# Sequence of Delta-type opioid receptor (P41143 whole entry): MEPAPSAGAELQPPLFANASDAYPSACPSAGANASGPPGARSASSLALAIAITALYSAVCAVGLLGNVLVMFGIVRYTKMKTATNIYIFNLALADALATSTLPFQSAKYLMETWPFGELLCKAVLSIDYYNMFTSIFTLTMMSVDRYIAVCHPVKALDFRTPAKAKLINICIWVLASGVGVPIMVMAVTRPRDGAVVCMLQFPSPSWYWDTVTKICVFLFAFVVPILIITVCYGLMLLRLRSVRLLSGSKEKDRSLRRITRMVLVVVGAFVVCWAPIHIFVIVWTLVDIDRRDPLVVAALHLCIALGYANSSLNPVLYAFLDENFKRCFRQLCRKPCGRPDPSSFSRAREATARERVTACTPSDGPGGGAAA
# Sequence of Mu-type opioid receptor (P35372 whole entry): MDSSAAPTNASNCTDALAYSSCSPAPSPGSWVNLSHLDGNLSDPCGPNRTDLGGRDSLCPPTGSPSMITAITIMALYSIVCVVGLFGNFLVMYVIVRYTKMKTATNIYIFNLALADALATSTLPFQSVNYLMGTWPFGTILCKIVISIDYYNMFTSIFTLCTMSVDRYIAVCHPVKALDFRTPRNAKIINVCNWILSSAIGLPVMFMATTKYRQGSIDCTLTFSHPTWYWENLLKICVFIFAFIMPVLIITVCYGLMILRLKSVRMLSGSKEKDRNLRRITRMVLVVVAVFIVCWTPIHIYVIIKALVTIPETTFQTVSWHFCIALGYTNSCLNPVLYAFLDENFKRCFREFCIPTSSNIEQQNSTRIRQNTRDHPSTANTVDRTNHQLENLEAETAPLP
structure (smiles),measurement,setting,value
S=C(NCCC(c1ccccc1)c1ccccc1)Nc1ccc(Cl)cc1,IC50,[1],> 100 µM (inactive)
same,IC50,[2],> 100 µM (inactive)
same,IC50,[3],9.61 µM (active)
Cc1ccc(NC(=O)Cn2c(O)c(N=NC(=O)c3cc([N+](=O)[O-])ccc3O)c3ccccc32)cc1,IC50,[4],12.9 µM (active)
same,IC50,[5],31 µM (active)
same,IC50,[6],6.94 µM (active)
FC(F)(F)c1ccc(CSc2nnc(-c3ccccn3)n2Cc2ccco2)cc1,EC50,[7],1.22 µM (active)
same,EC50,[8],> 64 µM (inactive)
same,EC50,[9],2.77 µM (active)
same,EC50,Mu-type opioid receptor,> 32 µM (inactive)
O=C(NCc1ccco1)c1ccc([N+](=O)[O-])o1,IC50,[10],34.6 µM (active)
same,CC50,Vero [11],22.8 µM (active)
same,IC50,Exodeoxyribonuclease V,113 µM (inactive)
same,EC50,[12],> 60 µM (not active)
same,IC50,[13],4.6 µM (active)
same,IC50,[14],> 39.5 µM (inactive)
same,EC50,[15],0.128 µM (active)
C[C@@H]1O[C@@H](O[C@H]2C[C@@H](O)[C@]3(CO)[C@H]4[C@H](O)C[C@]5(C)[C@@H](C6=CC(=O)OC6)CC[C@]5(O)[C@@H]4CC[C@]3(O)C2)[C@H](O)[C@H](O)[C@H]1O [OUABAIN],CC50,Vero [16],0.16 µM (active)
same,CC50,Vero [11],0.13 µM (active)
same,EC50,[17],< 0.1 µM (active)
same,IC50,DLD-1 [18],0.0297 µM (active)
same,IC50,Vero [19],< 0.05 µM (active)
same,IC50,[20],> 39.8 µM (not active)
same,EC50,[21],< 0.1 µM (active)
same,EC50,[22],< 0.1 µM (active)
same,IC50,DLD-1 [23],0.0464 µM (active)
